Assay results taken from PubChem BioAssay AID1963873 (Molecular Pharmacology Branch, DTP, NCI, 2024).

Test system: 276233-004-R-J1-PDC KRAS spheroids with HUVEC/MSC, viability
Experiment: Anticancer human tumor 276233-004-R-J1-PDC patient-derived colon adenocarcinoma cell line growth inhibition [KRAS2]
Conditions: for IC50: curve of first compound; for viability, T/C: stronger effect = lower value
Description: Multicellular complex tumor spheroid response to RAS pathway inhibitors in combination with a targeted agents in patient-derived cell lines with oncogenic KRAS variants from multiple cancer types
A high-throughput screen of multi-cell type tumor spheroids was designed to identify active combinations of targeted small molecules and KRAS pathway inhibitors. Complex spheroids include a stromal component modeled by human endothelial cells (HUVEC) and fibroblasts modeled by human mesenchymal stem cells (MSCs). The concentration ranges selected for each drug and investigational agent were based upon clinically achievable concentrations if the clinical Cmax of the agent was known.
Compounds. The drugs and investigational agents: BI-3406 (NSC825286), BAY-293 (NSC824723), batoprotafib (TNO155; NSC825523), sotorasib (AMG 510; NSC818433), MRTX1257 (NSC819558), elimusertib (BAY 1895344; NSC800525), molibresib (GSK525762; NSC774829), temuterkib (LY3214996; NSC803410), venetoclax (NSC766270), alisertib (NSC759677), olaparib (NSC753686), talazoparib (NSC767125), erdafitinib (NSC781556), ipatasertib (NSC767898), cabozantinib (NSC761068), nintedanib (NSC756659), abemaciclib (NSC768073), docetaxel (NSC628503), trametinib (NSC758246), and sapanisertib (NSC764658) were obtained from the National Cancer Institute (NCI) Developmental Therapeutics Program Chemical Repository. The FDA-approved anticancer drug set is available from the Developmental Therapeutics Program. […] The stock solutions were prepared in dimethyl sulfoxide (DMSO, Sigma-Aldrich, St. Louis, MO, cat. D2650) at 800-fold the tested concentration and stored at -70 degrees C prior to their use. All drugs and investigational agents were tested over a range starting from a high concentration at or near the clinical Cmax and decreasing in half-log increments. If the clinical Cmax for an agent had not been determined, the highest concentration tested was 10 microM.
Cell Culture. All cells were maintained in an incubator at 37 degrees C and 5% CO2 with 95% humidity. The PDC lines were cultured according to standard operating procedures established by the NCI PDMR (https://pdmr.cancer.gov/sops/default.htm). Briefly, all PDCs were thawed and cultured in Matrigel-coated flasks prepared with a working solution of 1X Ham's F-12 nutrient mix, without supplementation (Invitrogen, Waltham, MA, cat. 11765054), 100 U/mL penicillin-streptomycin (Invitrogen, cat. 15140122), and 2.5% Matrigel (Corning Inc., Corning, NY, cat. 354248) for the first three passages. All PDCs were cultured in complete DMEM/F-12 media containing advanced DMEM/F-12 (Invitrogen, cat. 12634028), 4.9% defined fetal bovine serum, heat inactivated (HyClone Laboratories Inc., Logan, UT, cat. SH30070.03HI), 389 ng/mL hydrocortisone (Sigma-Aldrich, cat. H4001), 9.7 ng/mL human EGF recombinant protein (Invitrogen, cat. PHG0313), 23.4 microg/mL adenine (Sigma-Aldrich, cat. A2786), 97.3 U/mL penicillin-streptomycin (Invitrogen, cat. 15140122), 1.9 mM L-glutamine (Invitrogen, cat. 25030081), and 9.7 microM Y-27632 dihydrochloride (Tocris Bioscience, Bristol, United Kingdom, cat. 1254). The PDCs were cultured in complete DMEM/F12 media without 9.7 microM Y-27632 dihydrochloride for at least two passages prior to the screen. The established cell line HOP-62 was cultured in RPMI 1640 medium, HEPES (Invitrogen, cat. 22400105) with 10% defined fetal bovine serum (HyClone Laboratories Inc., cat. SH30070.03) and 2 mM L-glutamine (Invitrogen, cat. 25030081). The pooled donor HUVEC were cultured in endothelial cell growth medium 2 (PromoCell, Heidelberg, Germany, cat. C-22011) and the hMSC were cultured in mesenchymal stem cell growth medium 2 (PromoCell, cat. C-28009). For all experiments, HUVEC and hMSC were used at passages </=5, while the malignant cell lines were used at passages </=15. […]

[1] = second compound 0.1 µM, first compound 0.0316 µM
[2] = second compound 0.1 µM, first compound 0.1 µM
[3] = second compound 0.1 µM, first compound 0.316 µM
[4] = second compound 0.1 µM, first compound 1 µM
[5] = second compound 0.316 µM, first compound 0.0316 µM
[6] = second compound 0.316 µM, first compound 0.1 µM
[7] = second compound 0.316 µM, first compound 0.316 µM
[8] = second compound 0.316 µM, first compound 1 µM
[9] = second compound 1 µM, first compound 0.0316 µM
[10] = second compound 1 µM, first compound 0.1 µM
[11] = second compound 1 µM, first compound 0.316 µM
[12] = second compound 1 µM, first compound 1 µM
[13] = second compound 3.16 µM, first compound 0.0316 µM
[14] = second compound 3.16 µM, first compound 0.1 µM
[15] = second compound 3.16 µM, first compound 0.316 µM
[16] = second compound 3.16 µM, first compound 1 µM
[17] = second compound 10 µM, first compound 0.0316 µM
[18] = second compound 10 µM, first compound 0.1 µM
[19] = second compound 10 µM, first compound 0.316 µM
[20] = second compound 10 µM, first compound 1 µM
[21] = second compound 0.1 µM, first compound 0.00316 µM
[22] = second compound 0.1 µM, first compound 0.01 µM
[23] = second compound 0.316 µM, first compound 0.00316 µM
[24] = second compound 0.316 µM, first compound 0.01 µM
[25] = second compound 1 µM, first compound 0.00316 µM
[26] = second compound 1 µM, first compound 0.01 µM
[27] = second compound 3.16 µM, first compound 0.00316 µM
[28] = second compound 3.16 µM, first compound 0.01 µM
[29] = second compound 10 µM, first compound 0.00316 µM
[30] = second compound 10 µM, first compound 0.01 µM
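Also: cells exposed to agents for seven days before viability read.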
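For viability, T/C in this document: 100% = DMSO vehicle control wells and lower values mean fewer viable cells.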

Row | Compound | IC50 (second compound 0.1 µM) [µM] | IC50 (second compound 0.316 µM) [µM] | IC50 (second compound 1 µM) [µM] | IC50 (second compound 3.16 µM) [µM] | IC50 (second compound 10 µM) [µM] | viability, T/C [1] [%] | viability, T/C [2] [%] | viability, T/C [3] [%] | viability, T/C [4] [%] | viability, T/C [5] [%] | viability, T/C [6] [%] | viability, T/C [7] [%] | viability, T/C [8] [%] | viability, T/C [9] [%] | viability, T/C [10] [%] | viability, T/C [11] [%] | viability, T/C [13] [%] | viability, T/C [14] [%] | viability, T/C [17] [%] | viability, T/C [18] [%] | further results
1 | CCNC(=O)CC1N=C(c2ccc(Cl)cc2)c2cc(OC)ccc2-n2c(C)nnc21 (stereo not given) + CNCc1ccccc1-c1csc(C(C)Nc2nc(C)nc3cc(OC)c(OC)cc23)c1 | > 10 | > 10 | > 10 | < 0.0316 | < 0.0316 | 86.7 | 84.3 | 68.2 | 68.3 | 88.2 | 82.8 | 85.5 | 73.5 | 87.3 | 71.2 | 67.2 | 0.46 | 0.86 | 0.24 | 1.77 | viability, T/C (second compound 0.1 µM, first compound 3.16 µM): 72.8%; viability, T/C (second compound 0.1 µM, first compound 10 µM): 54.4%; viability, T/C (second compound 0.316 µM, first compound 3.16 µM): 72.7%; viability, T/C (second compound 0.316 µM, first compound 10 µM): 67.1%; viability, T/C [12]: 61%; viability, T/C (second compound 1 µM, first compound 3.16 µM): 56.8%; viability, T/C (second compound 1 µM, first compound 10 µM): 66.3%; viability, T/C [15]: 2.72%; viability, T/C [16]: 0.85%; viability, T/C (second compound 3.16 µM, first compound 3.16 µM): 2.19%; viability, T/C (second compound 3.16 µM, first compound 10 µM): 1.93%; viability, T/C [19]: 0.22%; viability, T/C [20]: 0.26%; viability, T/C (second compound 10 µM, first compound 3.16 µM): 0.43%; viability, T/C (second compound 10 µM, first compound 10 µM): 0.23%
2 | Cn1ncnc1[C@H]1c2n[nH]c(=O)c3cc(F)cc(c23)N[C@@H]1c1ccc(F)cc1 + COc1cc2nc(C)nc(NC(C)c3cc(N)cc(C(F)(F)F)c3)c2cc1OC1CCOC1 | > 0.1 | > 0.1 | > 0.1 | > 0.1 | < 0.000316 | 89.7 | 76 | – | – | 87.9 | 83.2 | – | – | 87.6 | 79.5 | – | 68.1 | 86.1 | 29.4 | 27.2 | viability, T/C (second compound 0.1 µM, first compound 0.000316 µM): 90%; viability, T/C (second compound 0.1 µM, first compound 0.001 µM): 81%; viability, T/C [21]: 76.2%; viability, T/C [22]: 87.1%; viability, T/C (second compound 0.316 µM, first compound 0.000316 µM): 89.1%; viability, T/C (second compound 0.316 µM, first compound 0.001 µM): 96.7%; viability, T/C [23]: 84.7%; viability, T/C [24]: 83.6%; viability, T/C (second compound 1 µM, first compound 0.000316 µM): 83.3%; viability, T/C (second compound 1 µM, first compound 0.001 µM): 91%; viability, T/C [25]: 82.6%; viability, T/C [26]: 85%; viability, T/C (second compound 3.16 µM, first compound 0.000316 µM): 85.3%; viability, T/C (second compound 3.16 µM, first compound 0.001 µM): 90.9%; viability, T/C [27]: 85.2%; viability, T/C [28]: 99.5%; viability, T/C (second compound 10 µM, first compound 0.000316 µM): 33.7%; viability, T/C (second compound 10 µM, first compound 0.001 µM): 40.1%; viability, T/C [29]: 29.1%; viability, T/C [30]: 34.8%
3 | CCN1CCN(Cc2ccc(Nc3ncc(F)c(-c4cc(F)c5nc(C)n(C(C)C)c5c4)n3)nc2)CC1 + CNCc1ccccc1-c1csc(C(C)Nc2nc(C)nc3cc(OC)c(OC)cc23)c1 | > 1 | > 1 | 0.54 | < 0.00316 | < 0.00316 | 87.1 | 92.1 | 126 | 115 | 95.3 | 107 | 104 | 116 | 76.3 | 76.2 | 80.7 | 0.51 | 0.41 | 0.33 | 0.21 | viability, T/C [21]: 129%; viability, T/C [22]: 106%; viability, T/C [23]: 90.2%; viability, T/C [24]: 111%; viability, T/C [25]: 92.2%; viability, T/C [26]: 96.9%; viability, T/C [12]: 16%; viability, T/C [27]: 0.71%; viability, T/C [28]: 0.53%; viability, T/C [15]: 1.45%; viability, T/C [16]: 0.72%; viability, T/C [29]: 0.81%; viability, T/C [30]: 1.33%; viability, T/C [19]: 0.22%; viability, T/C [20]: 0.3%
